What all share (test): relative viability (nuclei count vs DMSO), 5 days (fraction); higher = more cells survive
Compound in assay [1]: O=S(=O)(c1ccccc1)N(CC(F)(F)F)c1ccc(C(O)(C(F)(F)F)C(F)(F)F)cc1 + Cc1nc(Nc2ncc(C(=O)Nc3c(C)cccc3Cl)s2)cc(N2CCN(CCO)CC2)n1 [Dasatinib] (partner 0.075 µM)
In outline: (§1)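 Five library-drug doses in √10 steps were combined with a fixed anchor-drug dose, or a single drug was given alone, by pin tool to lung cancer cell lines in 1536-well plates the day after seeding. Nuclei were stained and counted after 5 days. Relative viability is the nuclei count in treated wells over that in vehicle wells, taken as the median of duplicate plates.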

Compound in assay [2]: C1=CC2=C(C=CC(=C2)C=C3C(=O)NC(=NCC4=CC=CS4)S3)N=C1 [RO-3306] + N=C(N)NC(=N)NCCc1ccccc1 [Phenformin] (partner 250 µM)
An outline of the steps: as §1

Compound in assay [3]: O=S(=O)(c1ccccc1)N(CC(F)(F)F)c1ccc(C(O)(C(F)(F)F)C(F)(F)F)cc1 + CC(C)C[C@H](NC(=O)[C@H](Cc1ccccc1)NC(=O)c1cnccn1)B(O)O [Bortezomib] (partner 0.002 µM)
An outline of the steps:
as §1

Compound in assay [4]: O=S(=O)(c1ccccc1)N(CC(F)(F)F)c1ccc(C(O)(C(F)(F)F)C(F)(F)F)cc1 + CC1(C)CCC(c2ccc(Cl)cc2)=C(CN2CCN(c3ccc(C(=O)NS(=O)(=O)c4ccc(N[C@H](CCN5CCOCC5)CSc5ccccc5)c(S(=O)(=O)C(F)(F)F)c4)cc3)CC2)C1 [Navitoclax] (partner 0.5 µM)
In outline: as §1

Compound in assay [5]: O=S(=O)(c1ccccc1)N(CC(F)(F)F)c1ccc(C(O)(C(F)(F)F)C(F)(F)F)cc1 + O=C(c1cc(Cc2n[nH]c(=O)c3ccccc23)ccc1F)N1CCN(C(=O)C2CC2)CC1 [Olaparib] (partner 8 µM)
An outline of the steps: as §1

As for UMC-11, the relative viability in assay [1] (first compound 0.8 µM) stood at 0.561; in assay [1] (first compound 2.53 µM) it was 0.531; in assay [1] (first compound 8 µM), 0.54; in assay [2] (first compound 0.01 µM), 0.351; in assay [2] (first compound 0.03162 µM), 0.291; in assay [2] (first compound 0.1 µM), 0.3. For the same cell line, the relative viability in assay [2] (first compound 0.3162 µM) turned out to be 0.366; in assay [2] (first compound 1 µM) it was 0.315; in assay [3] (first compound 0.8 µM) it was 0.929; in assay [3] (first compound 2.53 µM) it was 0.743; in assay [3] (first compound 8 µM), 0.972; in assay [4] (first compound 0.8 µM), 0.335. In addition, the relative viability in assay [4] (first compound 2.53 µM) amounted to 0.352; in assay [4] (first compound 8 µM) it was 0.37; in assay [5] (first compound 0.8 µM), 0.355; in assay [5] (first compound 2.53 µM) it was 0.459; in assay [5] (first compound 8 µM), 0.379.

Source of the values: the supplement of paper PMC10307832.
